Assay results taken from publication PMC12363342, “Investigating the N-terminal linker histone H1 subtypes as substrates for JmjC lysine demethylases” (RSC Chemical Biology, 2025).
Square brackets hold non-standard residues; d marks the D form. Ends that are not written are not given here. Lys(Me3) = C[N+](C)(C)CCCC[C@H](N)C(=O)O

Legend:
Format in all cases: biochemical, human
Conditions in all cases: 2 μM KDM, 10 μM H1/H3 peptide, 10 μM FAS, 100 μM LAA, 20 μM 2OG, 50 mM HEPES pH 7.5, 2 h, room temperature, T (tri-) initial methylation state
KDM6B = assay: LC-MS demethylation activity assay, KDM6B
Outline: (§1)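 H1 isoform peptides (10 μM) were incubated 2 h at room temperature with 2 μM recombinant N-terminally His6-tagged catalytic domains in 50 mM HEPES pH 7.5 containing FAS (10 μM), ascorbate (100 μM) and 2OG (20 μM). Reactions were quenched with formic acid (1% final), and demethylation was analysed by LC-MS (Q-TOF).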

KDM3C = assay: LC-MS demethylation activity assay, KDM3C
Outline: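 His6-tagged recombinant catalytic domains (2.0 μM) were used: KDM4A M1–L359, KDM4D M1–L359 and KDM3C L2157–L2500 from E. coli, and KDM5D M1–D775 from Sf9. Each acted on 10 μM H1 peptide in 50 mM HEPES pH 7.5 with 10 μM Fe(II), 100 μM ascorbate and 20 μM 2OG for 2 h at room temperature. Reactions were formic acid-quenched and analysed by LC-MS.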

KDM3B = assay: LC-MS demethylation activity assay, KDM3B
Outline: as §1

KKKAAK[Lys(Me3)]AGGTPRKA [Peptide H1.2K26me3, 15-mer linker histone H1.2 residues 20-34 peptide, tri-methylated K26]
● [red]: KDM6B demethylation activity, T (KDM6B) | KDM3C demethylation activity, T (KDM3C) | KDM3B demethylation activity, T (KDM3B)

KKKAA[Lys(Me3)]KAGGTPRKA [Peptide H1.2K25me3, 15-mer linker histone H1.2 residues 20-34 peptide, tri-methylated K25]
● [red]: KDM6B demethylation activity, T (KDM6B) | KDM3C demethylation activity, T (KDM3C) | KDM3B demethylation activity, T (KDM3B)

KKKAR[Lys(Me3)]SAGAAKRKA [Peptide H1.4K25me3, 15-mer linker histone H1.4 residues 20-34 peptide, tri-methylated K25]
● [red]: KDM6B demethylation activity, T (KDM6B) | KDM3C demethylation activity, T (KDM3C) | KDM3B demethylation activity, T (KDM3B)

KKKATK[Lys(Me3)]AAGAGAAK [Peptide H1.5K26me3, 15-mer linker histone H1.5 residues 20-34 peptide, tri-methylated K26]
● [red]: KDM6B demethylation activity, T (KDM6B) | KDM3C demethylation activity, T (KDM3C) | KDM3B demethylation activity, T (KDM3B)

KKKA[Lys(Me3)]KAGATAGKRK [Peptide H1.3K24me3, 15-mer linker histone H1.3 residues 20-34 peptide, tri-methylated K24]
● [red]: KDM6B demethylation activity, T (KDM6B) | KDM3C demethylation activity, T (KDM3C) | KDM3B demethylation activity, T (KDM3B)
